Assay results from patent US20090306053A1, “Highly selective rho-kinase inhibitor” (priority 2005, published 2009).

Assays:
Type in all cases: biochemical
[1] = biological target: T1, Recombinant human AuroraA (Homo sapiens, UniProt O14965); assay: AuroraA kinase assay (Kinase-Glo ATP consumption); design: key to Realative Inhibitory Activity AuroraA: ratio relative to ROCKII-inhibiting activity defined as 1.0 (from IC50s); conditions: for IC50: 1 μM ATP, read-out: Kinase Inhibiting Activity (IC50) AuroraA; for Realative Inhibitory Activity AuroraA: relative ratio to ROCKII (=1.0), based on IC50 values
T1 construct: purchased Upstate
T1 sequence (O14965 1-403): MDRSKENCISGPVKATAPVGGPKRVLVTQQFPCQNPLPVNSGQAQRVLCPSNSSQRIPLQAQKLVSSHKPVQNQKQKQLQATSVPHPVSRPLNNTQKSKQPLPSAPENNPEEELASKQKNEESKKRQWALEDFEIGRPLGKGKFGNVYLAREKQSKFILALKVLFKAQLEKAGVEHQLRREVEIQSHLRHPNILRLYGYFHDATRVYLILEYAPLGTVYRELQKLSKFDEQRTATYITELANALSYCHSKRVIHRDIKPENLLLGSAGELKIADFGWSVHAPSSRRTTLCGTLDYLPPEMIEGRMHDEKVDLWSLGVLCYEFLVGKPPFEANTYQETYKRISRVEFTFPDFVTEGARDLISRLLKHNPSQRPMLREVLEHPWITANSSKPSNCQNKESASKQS
Procedure: Recombinant human AuroraA (Upstate) was used to evaluate its activity to phosphorylate a substrate peptide (LRRASLG, Promega) was evaluated.
(§1) In a system of the total volume of 50 μL, the reaction of the above-mentioned enzyme (40 ng) was carried out at room temperature for 80 minutes in the presence of 40 mM of MOPS-NaOH (pH 7.5), 20 mM of magnesium chloride, 200 μM of the above peptide, and 1 μM of ATP. After the kinase reaction, the luminescence intensity corresponding to the amount of ATP in the reaction system was measured using a luciferase reagent (Kinase-Glo Luminescent Kinase Assay kit, Promega) with a chemiluminescence measurement apparatus (MicroLumat, Berthold Technologies). The amount of ATP consumed by the phosphorylation reaction was calculated by comparison with the luminescence intensity in the system when the kinase reaction was not carried out.
(§2) With this system, the kinase reaction was carried out in the presence of a compound at various concentrations, and the IC50 value of the compound was determined based on the resulting compound concentration-response curve for ATP consumption.
The ROCKII-inhibiting activity of a compound to be tested was defined as 1.0, and the inhibitory activities of the compound against kinases (PKA, PKG, CaMKII, and AuroraA) other than ROCKII were calculated as relative ratios to the ROCKII-inhibiting activity, based on the IC50 values calculated using the above-described evaluation system.

[2] = biological target: T2, Purified chicken MLCK (Gallus gallus, UniProt P11799); assay: MLCK kinase assay (Kinase-Glo ATP consumption); conditions: 1 μM ATP; read-out: Kinase Inhibiting Activity (IC50) MLCK
T2 construct: from tissue
Procedure: Purified chicken MLCK (purified by the method of M. Anne Conti, et al.: Method in Enzymol. 196, 34-47) was used to evaluate its activity to phosphorylate a substrate peptide (AKRPQRATSNVFS, Sigma).
as §1, with “(100” for “(40”, “20” for “40”, “Tris-HCl” for “MOPS-NaOH”, “5” for “20”, “0.2 mM of calcium chloride, 0.02 mg/mL of BSA, 8 μg/mL of purified bovine brain calmodulin (Sigma), 50” for “200”
as §2

[3] = biological target: T3, Recombinant human Ab1 (Homo sapiens, UniProt P00519); assay: Abl kinase assay (Kinase-Glo ATP consumption); conditions: 1 μM ATP; read-out: Kinase Inhibiting Activity (IC50) Abl
T3 construct: from 27th to 1149th amino acids; purchased Upstate
Procedure: Recombinant human Ab1 (from 27th to 1149th amino acids, Upstate) was used to evaluate its activity to phosphorylate a substrate peptide (EAIYAAPFAKKK, Upstate).
as §1, with “(20” for “(40”, “50” for “40”, “Tris-HCl” for “MOPS-NaOH”, “10” for “20”, “50” for “200”
as §2

[4] = biological target: T4, Recombinant mouse MKK4 (Mus musculus, UniProt P47809); assay: MKK4 kinase assay (Kinase-Glo ATP consumption); conditions: 1 μM ATP; read-out: Kinase Inhibiting Activity (IC50) MKK4
T4 construct: from 34th to 397th amino acids; purchased Upstate
T4 sequence (P47809 34-397): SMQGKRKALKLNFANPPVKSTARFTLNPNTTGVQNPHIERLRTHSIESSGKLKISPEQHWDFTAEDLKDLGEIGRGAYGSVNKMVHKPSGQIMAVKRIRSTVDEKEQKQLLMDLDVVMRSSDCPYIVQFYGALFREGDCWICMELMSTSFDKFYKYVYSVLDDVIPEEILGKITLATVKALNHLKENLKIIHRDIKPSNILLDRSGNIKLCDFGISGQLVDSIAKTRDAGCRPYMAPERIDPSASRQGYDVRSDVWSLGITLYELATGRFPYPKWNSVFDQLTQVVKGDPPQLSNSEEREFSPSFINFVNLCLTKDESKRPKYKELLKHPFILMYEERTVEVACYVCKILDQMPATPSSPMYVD
Procedure: as §1, with “(400” for “(40”, “25” for “40”, “Tris-HCl” for “MOPS-NaOH”, “10” for “20”, “0.02 mg/mL” for “200 μM”, “JNK1α1,” for “peptide,”
as §2

T3 sequence (P00519 27-1149 isoform P00519-2): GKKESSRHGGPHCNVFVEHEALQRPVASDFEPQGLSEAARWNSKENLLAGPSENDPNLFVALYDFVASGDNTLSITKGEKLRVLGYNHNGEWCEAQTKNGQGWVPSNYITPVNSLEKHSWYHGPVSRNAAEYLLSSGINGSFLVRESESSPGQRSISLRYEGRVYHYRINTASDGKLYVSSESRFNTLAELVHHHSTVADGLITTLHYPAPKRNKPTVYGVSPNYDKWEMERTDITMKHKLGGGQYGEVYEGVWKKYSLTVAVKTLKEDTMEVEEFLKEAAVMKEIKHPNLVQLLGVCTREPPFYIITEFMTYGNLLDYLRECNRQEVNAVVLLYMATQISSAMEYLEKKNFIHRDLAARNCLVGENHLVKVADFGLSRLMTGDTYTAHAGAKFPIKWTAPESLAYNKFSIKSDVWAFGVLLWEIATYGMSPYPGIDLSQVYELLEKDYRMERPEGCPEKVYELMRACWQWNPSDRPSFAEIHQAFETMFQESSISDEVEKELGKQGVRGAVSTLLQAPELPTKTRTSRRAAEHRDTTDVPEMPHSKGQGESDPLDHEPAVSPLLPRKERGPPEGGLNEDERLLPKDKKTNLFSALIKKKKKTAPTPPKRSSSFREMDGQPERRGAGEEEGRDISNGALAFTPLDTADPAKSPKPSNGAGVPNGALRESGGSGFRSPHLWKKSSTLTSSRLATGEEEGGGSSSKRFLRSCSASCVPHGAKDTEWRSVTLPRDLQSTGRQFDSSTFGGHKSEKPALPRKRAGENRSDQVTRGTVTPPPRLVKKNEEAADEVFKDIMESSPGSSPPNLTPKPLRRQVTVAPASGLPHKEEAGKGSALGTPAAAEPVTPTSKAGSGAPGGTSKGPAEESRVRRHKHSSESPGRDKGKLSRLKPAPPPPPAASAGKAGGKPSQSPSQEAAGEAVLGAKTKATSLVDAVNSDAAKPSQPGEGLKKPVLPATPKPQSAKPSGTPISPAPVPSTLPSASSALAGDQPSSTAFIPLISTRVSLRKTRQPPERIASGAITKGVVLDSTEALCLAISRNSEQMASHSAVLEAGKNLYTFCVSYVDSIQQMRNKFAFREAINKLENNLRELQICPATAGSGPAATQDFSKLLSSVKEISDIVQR

Compound | IC50 [1] | Realative Inhibitory Activity AuroraA [1] | IC50 [2] | IC50 [3] | IC50 [4]
2-(S)-1-(4-fluoroisoquinoline-5-sulfonyl)-4-glycyl-2-methylhomopiperazine dihydrochloride [Example 1] | 84.5 µM | 2817 | > 100 µM | > 100 µM | > 100 µM
CNCC(=O)N1CCCN(S(=O)(=O)c2cccc3cncc(F)c23)[C@@H](C)C1.Cl.Cl [Example 2, 2-(S)-1-(4-fluoroisoquinoline-5-sulfonyl)-2-methyl-4-(N-methylglycyl)homopiperazine dihydrochloride] | 92.2 µM | >3000 | > 100 µM | > 100 µM | > 100 µM
